Experimental data: US10421782B2, “Cyclic cationic peptides with antimicrobial activity” (I.C.F. S.R.L., priority 2012, dated 2019)
Converted amounts (≈) assume the structure as drawn. “And” between values parts separate entries of the source, which are not always exact repeats. Equal values may be shown once. Read-outs that look alike come from different tables or passages of the source. Where a SMILES comes first, the peptide text is derived from it. Bridges are numbered along the chain shown (N, C = ends).

What was measured:
Jurkat cells = assay: Cytotoxicity of peptides against Jurkat cells (Trypan Blue); type: cell-based; conditions: 20 μM
Protocol: Cytotoxicity of the peptides against T lymphocytes, for example Jurkat cells, was determined seeding the cells at a density of about 5*10^5 cells/ml in the presence and in the absence of peptides and incubating overnight at 37° C. in thermostat under CO2. As a negative cytotoxicity control, a medium lacking the test peptide was used, while as a positive cytotoxicity control, a medium containing 0.2% Triton X-100 was used, to completely lyse the cells. The cell viability was subsequently determined by adding 20 μl of Trypan Blue in each well, and by incubation of the cells for additional 5 min a 37° C. MCC10 value was calculated as the minimum peptide concentration necessary to induce 10% of cytotoxicity.

[1] = test system: Stenotrophomonas maltophilia ATCC 13637; assay: Broth-microdilution test and subsequent plating on agar, Gram-negative bacteria; type: cell-based; conditions: 2 h contact at 37° C., CFU count after 24 h
Protocol: (§1) For each bacterial strain, 3-5 morphologically similar colonies were drawn from fresh cultures, inoculated in Brain Hearth Infusion broth liquid medium and incubated at the temperature of 37° C. under shaking at 225 r.p.m. for 3-4 h. Subsequently, the bacterial suspension was centrifuged at 1000 g for 20 min and the thus obtained pellet was resuspended in phosphate buffer 10 mM. Turbidity was measured in a spectrophotometer with absorbance at 600 nm, equivalent in the range 0.08-0.13 to a concentration of about 10^8 CFU/ml. The bacterial suspension was diluted 1:100 in phosphate buffer 10 mM, and within 30 min 50 microliters of such bacterial suspension (10^6 CFU/ml) were inoculated in each well of the microtiter plate, to obtain a final bacterial concentration of about 5×10^5 CFU/ml.
(§2) Several peptides were tested for their ability to inhibit bacterial growth in liquid culture. Fifty microliters of peptide at a concentration comprised between about 0.2 mM and 50 mM were added in 96-well U-bottom plates containing liquid growth medium and one of the following bacteria: Escherichia coli ATCC 25922, P. aeruginosa ATCC 27853, Stenotrophomonas maltophilia ATCC 13637. After 2 hour incubation at 37° C., bacteria were transferred on a solid medium. As a growth control, bacterial cultures were cultured in the absence of peptides.
(§3) The bacterial suspension was put in contact for two hours with different concentrations of the peptide at the temperature of 37° C. After incubation, 20 μl were drawn from the wells of each dilution and seeded on solid medium, agar McConkey. The inoculum was evenly distributed on the agarized medium by means of a sterile disposable loop. After incubation for 24 h at the temperature of 37° C., counting of the bacterial colonies (CFU) was performed.

[2] = test system: meticillin-resistant S. aureus ATCC 43300; assay: Broth-microdilution test and subsequent plating on agar, Gram-positive bacteria; type: cell-based, Staphylococcus aureus; conditions: 2 h contact at 37° C., CFU count after 24 h
Protocol: as §1, with “30 min,” for “30 min”
(§4) Several synthetic peptides were tested for their ability to inhibit bacterial growth. Fifty microliters of peptide at a concentration comprised between about 0.2 mM and about 50 mM were added to 96-well U-bottom plates containing phosphate buffer and one of the following bacteria: S. aureus ATCC 25923, meticillin-resistant S. aureus ATCC 43300. After 2 hour incubation at 37° C., bacteria were transferred on a solid medium. As a control, the bacterial cultures were cultured in the absence of peptide.
as §3, with “medium, Columbia” for “medium,”, “agar supplemented with 5% bovine red blood cells for Gram-positive bacteria.” for “agar McConkey.”, “24 hours” for “24 h”

S. aureus ATCC 25923 = assay: as above; type: cell-based, Staphylococcus aureus; conditions: meticillin-sensitive, 2 h contact at 37° C., CFU count after 24 h
Protocol: as §1, with “30 min,” for “30 min”
as §4
as §3, with “medium, Columbia” for “medium,”, “agar supplemented with 5% bovine red blood cells for Gram-positive bacteria.” for “agar McConkey.”, “24 hours” for “24 h”

[3] = test system: Escherichia coli ATCC 25922; type: cell-based; conditions: for LD90 E. coli ATCC 25922: 2 h contact at 37° C., CFU count after 24 h
Protocol: as §1, §2, §3

[4] = test system: Pseudomonas aeruginosa ATCC 27853; type: cell-based; conditions: for LD90 P. aeruginosa ATCC 27853: 2 h contact at 37° C., CFU count after 24 h
Protocol: as §1, §2, §3

E. coli ML-35pYC = assay: Membrane permeabilization assay (CENTA / ONPG kinetics); type: cell-based, Escherichia coli; conditions: peptide 12.5 μg/ml, logistic 4-parameter fit, read up to 240 min
Protocol: The strain ML-35pYC of E. coli was used to assay the kinetics of membrane permeabilization performed by the peptides of the invention. This bacterial strain expresses resistance to ampicillin, constitutive expression of cytoplasmic beta-galactosidase, and is engineered with a plasmid for the synthesis of a periplasmic beta-lactamase. Sixty microliters (60 μl) of bacterial suspension of strain ML-35pYC of E. coli were added to 60 μl of a 15 mM solution of ONPG or 1.5 mM of CENTA in phosphate buffer. Subsequently, 120 μl of the test peptides were added to obtain a final concentration of 12.5 μg/ml. The kinetics of the reaction was evaluated by recording the value of absorbance at […] and 405 nm, for ONPG and CENTA respectively, every 10 min up to a maximum of 240 min.
By “fitting” the experimental points with the logistic 4-parameter curve, it was possible to determine the inflexion point, that is the point where the curve changes direction, relative to the 3 test peptides. No inflexion point was observed during the assay with CENTA (inflexion point higher than 500 min).

[5] = test system: Malassezia pachydermatis ATCC 14522; assay: Broth-microdilution test and subsequent plating on agar, fungi (yeasts); type: cell-based; conditions: 2 h contact at 37° C., CFU count on agar Sabouraud
Protocol: (§5) The inoculum was set up by culturing Candida albicans ATCC 10231 and Malassezia pachydermatis ATCC 14522 in Czapek-Dox broth medium (DIFCO) for 48-72 h. On the assay day, the fungal culture was centrifuged at 1700×g for 15 min, the pellet was resuspended in phosphate buffer and submitted to shaking by the use of an electric vortex to disperse the fungal cell aggregates. The suspension was diluted until an optical density equal to an opacity of 0.5 on the McFarland turbidimetric scale was reached, which contains approximately 1-5×10^6 cell/ml (Branda J. A., Krantz A. Effectc of yeast on automated cell counting. Am J Clin Pathol., 2006:126, 248-254).
(§6) The peptides were tested for their ability to inhibit fungal growth. Fifty microliters of peptide at a concentration comprised between about 0.2 mM and about 50 mM were added in 96-well U-bottom plates containing phosphate buffer and one of the following fungi: Candida albicans ATCC 10231 and Malassezia pachydermatis ATCC 14522. After 2 h incubation at 37° C., fungi were transferred on the solid medium agar Sabouraud. As a control, fungal cultures were cultured in the absence of peptide.
(§7) The fungal suspension was put in contact for two hours with different concentrations of the peptide at the temperature of 37° C. After incubation, 20 μl were drawn from the wells of each dilution and seeded on the solid medium agar Sabouraud. The inoculum was evenly distributed on the agarized medium by means of a sterile disposable loop. After incubation for 24 h at the temperature of 37° C., counting of the fungal colonies (CFU) was performed.

[6] = test system: Candida albicans ATCC 10231; assay: as above; type: cell-based; conditions: 2 h contact at 37° C., CFU count on agar Sabouraud
Protocol: as §5, §6, §7

| Structure (SMILES) | death of the cells (Jurkat) (Jurkat cells) | LD90 S. maltophilia ATCC 13637 [1] | LD90 S. maltophilia ATCC 13637 ([1]; listed as 72) | LD90 MRSA ATCC 43300 [2] | LD90 MRSA ATCC 43300 ([2]; listed as 72) | LD90 S. aureus ATCC 25923 (S. aureus ATCC 25923) | LD90 S. aureus ATCC 25923 (S. aureus ATCC 25923; listed as 72) | LD90 E. coli ATCC 25922 [3] | LD90 E. coli ATCC 25922 ([3]; listed as 72) | MBC E. coli ATCC 25922 ([3]; ATCC 25922) | LD90 P. aeruginosa ATCC 27853 [4] | LD90 P. aeruginosa ATCC 27853 ([4]; listed as 72) | MBC P. aeruginosa ATCC 27853 ([4]; ATCC 27853) | Inflexion point CENTA (E. coli ML-35pYC; CENTA substrate (periplasmic beta-lactamase)) | Inflexion point ONPG (E. coli ML-35pYC; ONPG substrate (cytoplasmic beta-galactosidase)) | LD90 Malassezia pachydermatis [5] | LD90 Malassezia pachydermatis ([5]; listed as 72) | LD90 Candida albicans [6] | LD90 Candida albicans ([6]; listed as 72) |
| --- | --- | --- | --- | --- | --- | --- | --- | --- | --- | --- | --- | --- | --- | --- | --- | --- | --- | --- | --- |
| CC[C@H](C)[C@@H]1NC(=O)CNC(=O)[C@H](CCCNC(=N)N)NC(=O)[C@H](Cc2ccc(O)cc2)NC(=O)[C@@H]2CSSC[C@H](NC1=O)C(=O)N[C@@H](Cc1ccc(O)cc1)C(=O)N[C@@H](CCCNC(=N)N)C(=O)N[C@@H](CCCNC(=N)N)C(=O)N[C@H](C(=O)N[C@@H](CCCNC(=N)N)C(N)=O)CSSC[C@H](NC(=O)[C@H](Cc1c[nH]c3ccccc13)NC(=O)[C@@H](N)CCCCN)C(=O)N[C@@H](Cc1ccccc1)C(=O)N[C@@H](CCCNC(=N)N)C(=O)N[C@@H](C(C)C)C(=O)N2 [tachyplesin-1] (H-KWCFRVCYRGICYRRCR-NH2; disulfide 3-16, 7-12) | 10% | – | – | – | – | – | – | – | – | – | – | – | – | – | – | – | – | – | – |
| CC(C)C[C@@H]1NC(=O)CNC(=O)[C@H](CCCNC(=N)N)NC(=O)[C@H](C(C)C)NC(=O)[C@H](CCCCN)NC(=O)[C@H](C(C)C)NC(=O)[C@H](CC(C)C)NC(=O)[C@H](C)NC(=O)[C@@H](NC(=O)CNC(=O)[C@@H](N)CCCCN)CSSC[C@@H](C(=O)N[C@@H](CCCCN)C(=O)O)NC(=O)[C@H](C(C)C)NC(=O)[C@H](CCCCN)NC(=O)[C@H](CC(C)C)NC(=O)[C@H]([C@@H](C)O)NC1=O (relative stereo) [Peptide P72, LYS*GLY*CYS*ALA*LEU*VAL*LYS*VAL*ARG*GLY*LEU*THR*LEU*LYS*VAL*CYS*LYS] | – | 1.88 µM | 1.88 μM and 3.42 μg/ml | 0.90 µM | 0.90 μM and 1.65 μg/ml | 3.39 µM | 3.39 μM and 6.16 μg/ml | 0.86 µM | 1.69 μg/ml and 0.86 μM | 9.68 µg/mL (≈ 5.34 µM) | 0.87 µM | 0.87 μM and 1.61 μg/ml | 2.84 µg/mL (≈ 1.57 µM) | >500 min | 7.86 min | 0.68 µM | 0.68 μM and 1.24 μg/ml | 1.03 µM | 1.03 μM and 1.87 μg/ml |
